# According to patent US20240050590A1, “METHODS AND COMPOSITIONS TO REGULATE CHOLESTEROL EFFLUX TO PREVENT, TREAT, OR CURE MACULAR DEGENERATION” (The Trustees of Columbia University in the City of New York, priority 2021, published 2024):
# Entries after “also recorded” stand apart in the source; their conditions may differ.
# Columns and labels:
# Format in all cases: cell-based, human
# [1] = system: CES1 expression in EFEMP1^WT iRPE cells; experiment: Western blot of CES1 expression in normal (EFEMP1^WT) iRPE cells after treatment with agonists and antagonists; settings: EFEMP1^WT iRPE cells from healthy donor, 72 h treatment, vs untreated control; LY294002 10 μM, GW4064 5 μM, GW3965 3 μM
# Method: (§1) Immunoblot To verify the differentiation of iRPE, CRALBP (Ab15051, Abcam) and RPE65 (401.8B11.3D9, Novas Biologicals) antibodies were used to detect mature RPE markers including CRALBP and RPE65 in iRPE cell lysates via western blot. To determine EFEMP1 expression in iRPE, both cell lysates and culture supernatant were assayed using anti-EFEMP1 antibody (MA5-25740, Thermo Fisher Scientific). To detect CES1 expression in iRPE, anti-CES1 antibody (AF4920, R&D) was used. Anti-alpha tubulin (T5168, Sigma Aldrich), anti-beta actin (A5316, Sigma), or anti-GAPDH (5174, Cell Signaling) antibodies were used to detect house-keeping proteins. The cell lysates were collected using RIPA buffer (Thermo Fisher Scientific).
# To understand the upstream regulators of CES1 expression, the iRPE cells from healthy donor were treated with Gefitnib ([…], Sigma Aldrich), ML385 ([…], Sigma Aldrich), LY294002 (10 μM, Sigma Aldrich), GW4064 (5 μM, Sigma Aldrich), or GW3965 (3 μM, Sigma Aldrich) for 72 h. Anti-CES1 (AF4920, R&D) and anti-alpha tubulin (T5168, Sigma Aldrich) antibodies were used to detect CES1 and tubulin expression, respectively. The signal was detected using Immobilon Western Chemiluminescent HRP Substrate (Millipore). The blot was quantified using ImageJ for signal intensity.
# [2] = system: iRPE cells; experiment: Cholesterol efflux assay in iRPE cells; set-up: dose or concentration left out as unconfirmed; settings: EFEMP1^R345W iRPE
# Method: Cholesterol efflux assay Cholesterol Efflux Assay Kit (Abcam) was used to determine the cholesterol efflux rate in iRPE according to the manufacturer's protocol. In brief, fluorescence-labeled cholesterol was added to iRPE culture and incubated overnight. On the next day, the cells were washed twice with PBS, and the efflux of cholesterol was induced by 2% human serum. At designated time points, the culture supernatant and cell lysate were collected and measured by fluorescence at Ex/Em: 482/515 nm. The percentage of cholesterol efflux was calculated by fluorescence intensity of media fluorescence/(fluorescence intensity of cell lysate+media)×100.
# (§2) Lentiviral transduction For the knockdown of CES1 (MIM: 114835) in iRPE cells, the iRPE cells from healthy donor were cultured in 6-well plate. The lentiviral particles carrying CES1 shRNA (Locus ID 1066, Origene) were transduced into the iRPE cells at a MOI of 10 overnight. To establish fair comparison, the control iRPE cells were transduced with viral particles expressing scramble shRNA. The medium was refreshed the following day, and the cell were incubated for 7 days before analysis. To achieve overexpression of CES1 in iRPE cells, lentiviral particles (Origene) expressing CMV promoter-driven CES1 (GenBank: NM_001025194) were transduced following the same procedure.
# [3] = system: CES1 expression in EFEMP1^R345W iRPE cells; experiment: Western blot of CES1 expression in EFEMP1^R345W iRPE cells treated with EGF; settings: 100 nM EGF, 72 h incubation, vs untreated cells
# Method: as §1
# [4] = system: iRPE cells; experiment: Nile red staining and quantification of intracellular lipid droplets in iRPE cells; set-up: amount of lipid droplets: dose or concentration left out as unconfirmed; settings: EFEMP1^R345W iRPE, 2 weeks, vs untreated
# Method: Nile red staining To stain the intracellular neutral lipid, the iRPE cell cultures were treated with […] Nile red (Sigma Aldrich) for 30 min at 37° C. The cells were washed with PBS three times before microscopy observation.
# Since mature iRPE culture is usually 100% confluent, the Nile red-positively stained lipid droplets were quantified using ImageJ in a fixed area of 90,000 square micrometers for the number and size of Nile red-positive signals. Fluorescent particles smaller than 0.0001 square micrometers was excluded as noise.
# as §2
compound,measurement,setting,value
O=C(O)Cc1cccc(OCCCN(Cc2cccc(C(F)(F)F)c2Cl)CC(c2ccccc2)c2ccccc2)c1 [GW3965],CES1 expression level (western blot),[1],no change in CES1 expression
CC(C)c1onc(-c2c(Cl)cccc2Cl)c1COc1ccc(/C=C/c2cccc(C(=O)O)c2)c(Cl)c1 [GW4064],CES1 expression level (western blot),[1],no change in CES1 expression
Cc1ccccc1C(=O)N1CCc2cc(-c3nc(NC(=O)Cc4ccc5c(c4)OCO5)sc3C)ccc21 [ML385],CES1 expression level (western blot),[1],only LY294002 reduced CES1 expression
COc1cc2ncnc(Nc3ccc(F)c(Cl)c3)c2cc1OCCCN1CCOCC1 [gefitinib],CES1 expression level (western blot),[1],remarkably reduced
epidermal growth factor [EGF],cholesterol efflux (in words),"[2]; EGF for two weeks, vs untreated",improve cholesterol efflux
same,increase in cholesterol efflux,"[2]; EGF, 2 weeks, vs untreated control",26%
same,CES1 level (western blot),[3],remarkably higher
same,lipid droplet size,[4]; 100 mM EGF,not obvious
same,amount of lipid droplets,[4]; EGF,significant decrease; also recorded: ameliorates intracellular lipid droplet accumulation
